Data taken from patent publication US10363257B2 (ZENITH EPIGENETICS LTD., priority 2013, dated 2019).

Assays:
[1] = test system: hIL-6 mRNA; experiment: Inhibition of hIL-6 mRNA transcription in LPS-stimulated U937 cells; format: cell-based; conditions: Homo sapiens, U-937; PMA-differentiated U937 cells, 1 h pretreatment, 1 ug/mL LPS stimulation, 3 h; read-out: IL-6 activity (Inhibition of hIL-6 mRNA Transcription)
In short: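 U937 cells differentiated 3 days with 60 ng/mL PMA, pretreated 1 h with compound (0.1% DMSO), then stimulated with 1 ug/mL E. coli LPS for 3 h at 37 °C. hIL-6 mRNA measured by one-step TaqMan RT-qPCR, normalized to cyclophilin. Fold expression relative to control; triplicate wells.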

[2] = test system: human AML MV-4-11 cells; experiment: Inhibition of cell proliferation in MV4-11 cells (CellTiter Aqueous One); format: cell-based; conditions: MV4-11, 72 h
In short: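 IC50 values come from blank-corrected proliferation relative to DMSO controls, read as 490 nm absorbance 3–4 h after CellTiter Aqueous One addition. Before that, cells seeded at 5×10^4/well were exposed for 72 h (37° C, 5% CO2) to triplicate two-fold compound dilutions spanning 30–0.2 μM.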

[3] = biological target: T1, Brd4 bromodomain 1 (BRD4(1)) (Homo sapiens, UniProt O60885); experiment: Inhibition of tetra-acetylated histone H4 binding to Brd4 bromodomain 1 (TR-FRET); conditions: tetra-acetylated histone H4 peptide, first bromodomain of Brd4
T1 construct: made in house; host or cells: E. coli BL21(DE3)
In short: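 Serially diluted compound (0.2% DMSO) incubated 2 h at room temperature with 200 nM N-His BRD4 bromodomain 1 and 25-50 nM biotinylated tetra-acetyl H4 peptide, detected via Eu-streptavidin/XL665 anti-His. Loss of 665 nm relative to 620 nm signal gave IC50 from dose-response.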

[4] = test system: c-myc; experiment: Inhibition of c-myc expression (mRNA, real-time PCR) in MV4-11 cells; format: cell-based; conditions: Human AML MV4-11 cells, 3 h, cMYC mRNA
In short: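 One-step TaqMan qPCR of cMYC, normalized to an internal control with Cyclophilin probes run, gave fold expression versus DMSO (0.1%) control. Samples: triplicate MV4-11 wells exposed 3 h at 37° C to rising compound concentrations in IMDM with 10% FBS.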

## Cc1noc(C)c1-c1cnc2nc(C)n(Cc3ccc(Cl)cc3)c2c1 [compound 83, 4-(1-(4-chlorobenzyl)-2-methyl-1H-imidazo[4,5-b]pyridin-6-yl)-3,5-dimethylisoxazole]
[1]
  IC50: 300 to 3000 nM
[2]
  IC50: 300 to 3000 nM
[3]
  IC50: ≤ 300 nM
[4]
  IC50: 300 to 3000 nM

## Cc1noc(C)c1-c1ccc2c(c1)N(Cc1ccccc1)CC(=O)N2 [compound 156, 4-benzyl-6-(3,5-dimethylisoxazol-4-yl)-3,4-dihydroquinoxalin-2(1H)-one]
[1]
  IC50: 300 to 3000 nM
[2]
  IC50: 300 to 3000 nM
[3]
  IC50: ≤ 300 nM
[4]
  IC50: 300 to 3000 nM

## Cc1noc(C)c1-c1cnc2nc(C)n(Cc3cccnc3)c2c1 [compound 68, 3,5-dimethyl-4-(2-methyl-1-(pyridin-3-ylmethyl)-1H-imidazo[4,5-b]pyridin-6-yl)isoxazole]
[1]
  IC50: 300 to 3000 nM
[2]
  IC50: 3000 to 30000 nM
[3]
  IC50: ≤ 300 nM
[4]
  IC50: 300 to 3000 nM

## Cc1noc(C)c1-c1cnc2nc(NCCN3CCOCC3)n(Cc3ccccc3)c2c1 [compound 215, 1-benzyl-6-(3,5-dimethylisoxazol-4-yl)-N-(2-morpholinoethyl)-1H-imidazo[4,5-b]pyridin-2-amine]
[1]
  IC50: ≤ 300 nM
[2]
  IC50: 300 to 3000 nM
[3]
  IC50: ≤ 300 nM
[4]
  IC50: ≤ 300 nM

## Cc1noc(C)c1-c1cnc2nc(C3CCOCC3)n(Cc3ccccc3)c2c1 [compound 220, 4-(1-benzyl-2-(tetrahydro-2H-pyran-4-yl)-1H-imidazo[4,5-b]pyridin-6-yl)-3,5-dimethylisoxazole]
[1]
  IC50: 300 to 3000 nM
[2]
  IC50: 300 to 3000 nM
[3]
  IC50: ≤ 300 nM
[4]
  IC50: 3000 to 30000 nM

## Cc1noc(C)c1-c1cnc2nc(C)n(Cc3ccc(F)cc3)c2c1 [Example Compound 58, 4-(1-(4-fluorobenzyl)-2-methyl-1H-imidazo[4,5-b]pyridin-6-yl)-3,5-dimethylisoxazole]
[1]
  IC50: 300 to 3000 nM
[2]
  IC50: 300 to 3000 nM
[3]
  IC50: ≤ 300 nM
[4]
  IC50: 300 to 3000 nM

## Cc1cnn(C)c1-c1cc([N+](=O)[O-])c2nc(C)n(Cc3ccccc3)c2c1 [compound 81, 1-benzyl-6-(1,4-dimethyl-1H-pyrazol-5-yl)-2-methyl-4-nitro-1H-benzo[d]imidazole]
[1]
  IC50: 300 to 3000 nM
[2]
  IC50: 3000 to 30000 nM
[3]
  IC50: 300 to 3000 nM
[4]
  IC50: 3000 to 30000 nM

## Cc1noc(C)c1-c1cc(N)c2nc(NC3CCOCC3)n(Cc3ccccc3)c2c1 [compound 109, 1-benzyl-6-(3,5-dimethylisoxazol-4-yl)-N2-(tetrahydro-2H-pyran-4-yl)-1H-benzo[d]imidazole-2,4-diamine]
[1]
  IC50: ≤ 300 nM
[2]
  IC50: ≤ 300 nM
[3]
  IC50: ≤ 300 nM
[4]
  IC50: ≤ 300 nM

## Cc1noc(C)c1-c1cc([N+](=O)[O-])c2nc(C)n(CC3CCC3)c2c1 [compound 116, 4-(1-(cyclobutylmethyl)-2-methyl-4-nitro-1H-benzo[d]imidazol-6-yl)-3,5-dimethylisoxazole]
[1]
  IC50: 300 to 3000 nM
[2]
  IC50: ≤ 300 nM
[3]
  IC50: ≤ 300 nM
[4]
  IC50: ≤ 300 nM

## Cc1noc(C)c1-c1cc(C#N)c2[nH]c(=O)n(Cc3ccccc3)c2c1 [compound 86, 1-benzyl-6-(3,5-dimethylisoxazol-4-yl)-2-oxo-2,3-dihydro-1H-benzo[d]imidazole-4-carbonitrile]
[1]
  IC50: 300 to 3000 nM
[2]
  IC50: 3000 to 30000 nM
[3]
  IC50: ≤ 300 nM
[4]
  IC50: 300 to 3000 nM

## Cc1ccc(Cn2c(C)nc3ncc(-c4c(C)noc4C)cc32)s1 [compound 76, 3,5-dimethyl-4-(2-methyl-1-((5-methylthiophen-2-yl)methyl)-1H-imidazo[4,5-b]pyridin-6-yl)isoxazole]
[1]
  IC50: 300 to 3000 nM
[2]
  IC50: 3000 to 30000 nM
[3]
  IC50: 300 to 3000 nM
[4]
  IC50: 300 to 3000 nM

## Cc1noc(C)c1-c1cnc2nc(NC3CCCC3)n(Cc3ccccc3)c2c1 [compound 214, 1-benzyl-N-cyclopentyl-6-(3,5-dimethylisoxazol-4-yl)-1H-imidazo[4,5-b]pyridin-2-amine]
[1]
  IC50: ≤ 300 nM
[2]
  IC50: ≤ 300 nM
[3]
  IC50: ≤ 300 nM
[4]
  IC50: ≤ 300 nM

## CC(=O)c1cn(Cc2ccccc2)c2cc(-c3c(C)noc3C)cnc12 [Example Compound 36, 1-(1-benzyl-6-(3,5-dimethylisoxazol-4-yl)-1H-pyrrolo[3,2-b]pyridin-3-yl)ethanone]
[1]
  IC50: 300 to 3000 nM
[2]
  IC50: 300 to 3000 nM
[3]
  IC50: ≤ 300 nM
[4]
  IC50: 300 to 3000 nM

## Cc1nc2c(N)cc(-c3ccnn3C)cc2n1Cc1ccccc1 [compound 94, 1-benzyl-2-methyl-6-(1-methyl-1H-pyrazol-5-yl)-1H-benzo[d]imidazol-4-amine]
[1]
  IC50: 300 to 3000 nM
[2]
  IC50: 300 to 3000 nM
[3]
  IC50: ≤ 300 nM
[4]
  IC50: 300 to 3000 nM

## Cc1noc(C)c1-c1cc(N)c2cnn(Cc3ccc(Cl)cc3)c2c1 [compound 102, 1-(4-chlorobenzyl)-6-(3,5-dimethylisoxazol-4-yl)-1H-indazol-4-amine]
[1]
  IC50: ≤ 300 nM
[2]
  IC50: 300 to 3000 nM
[3]
  IC50: ≤ 300 nM
[4]
  IC50: ≤ 300 nM

## Cc1noc(C)c1-c1cnc2nc(N3CCOCC3)n(CC3CCCC3)c2c1 [compound 208, 4-(1-(cyclopentylmethyl)-6-(3,5-dimethylisoxazol-4-yl)-1H-imidazo[4,5-b]pyridin-2-yl)morpholine]
[1]
  IC50: ≤ 300 nM
[2]
  IC50: 300 to 3000 nM
[3]
  IC50: ≤ 300 nM
[4]
  IC50: ≤ 300 nM

## CCS(=O)(=O)Nc1cc(-c2c(C)noc2C)cc2c1nc(C)n2Cc1ccccc1 [Example Compound 65, N-(1-benzyl-6-(3,5-dimethylisoxazol-4-yl)-2-methyl-1H-benzo[d]imidazol-4-yl)ethanesulfonamide]
[1]
  IC50: 300 to 3000 nM
[2]
  IC50: 300 to 3000 nM
[3]
  IC50: ≤ 300 nM
[4]
  IC50: 300 to 3000 nM

## Cc1noc(C)c1-c1cc(N)c2nc(C)n(C(C)c3ccccc3)c2c1 (stereo not shown) [compound 96, 6-(3,5-dimethylisoxazol-4-yl)-2-methyl-1-(1-phenylethyl)-1H-benzo[d]imidazol-4-amine]
[1]
  IC50: ≤ 300 nM
[2]
  IC50: ≤ 300 nM
[3]
  IC50: ≤ 300 nM
[4]
  IC50: ≤ 300 nM

## Cc1noc(C)c1-c1cnc2c(C#N)cn(Cc3ccccc3)c2c1 [compound 88, 1-benzyl-6-(3,5-dimethylisoxazol-4-yl)-1H-pyrrolo[3,2-b]pyridine-3-carbonitrile]
[1]
  IC50: ≤ 300 nM
[2]
  IC50: 300 to 3000 nM
[3]
  IC50: ≤ 300 nM
[4]
  IC50: 300 to 3000 nM

## Cc1noc(C)c1-c1cc(Br)c2nc(C)n(Cc3ccccc3)c2c1 [compound 121, 4-(1-benzyl-4-bromo-2-methyl-1H-benzo[d]imidazol-6-yl)-3,5-dimethylisoxazole]
[1]
  IC50: 300 to 3000 nM
[2]
  IC50: ≤ 300 nM
[3]
  IC50: ≤ 300 nM
[4]
  IC50: ≤ 300 nM

## Cc1noc(C)c1-c1cc(N)c2nc(C)n(CC3CCC3)c2c1 [compound 132, 1-(cyclobutylmethyl)-6-(3,5-dimethylisoxazol-4-yl)-2-methyl-1H-benzo[d]imidazol-4-amine]
[1]
  IC50: ≤ 300 nM
[2]
  IC50: 300 to 3000 nM
[3]
  IC50: ≤ 300 nM
[4]
  IC50: 300 to 3000 nM

## Cc1noc(C)c1-c1cc(N)c2ccn(Cc3ccc(F)cc3)c2n1 [Example Compound 52, 6-(3,5-dimethylisoxazol-4-yl)-1-(4-fluorobenzyl)-1H-pyrrolo[2,3-b]pyridin-4-amine]
[1]
  IC50: 300 to 3000 nM
[2]
  IC50: 300 to 3000 nM
[3]
  IC50: 300 to 3000 nM
[4]
  IC50: 3000 to 30000 nM

## Cc1noc(C)c1-c1cc(N(C)C)c2ncn(Cc3ccc(F)cc3)c2c1 [Example Compound 29, 6-(3,5-dimethylisoxazol-4-yl)-1-(4-fluorobenzyl)-N,N-dimethyl-1H-benzo[d]imidazol-4-amine]
[1]
  IC50: 300 to 3000 nM
[2]
  IC50: 300 to 3000 nM
[3]
  IC50: ≤ 300 nM
[4]
  IC50: 300 to 3000 nM

## COc1ccc(Cn2c(C)nc3ncc(-c4c(C)noc4C)cc32)cc1 [Example Compound 62, 4-(1-(4-methoxybenzyl)-2-methyl-1H-imidazo[4,5-b]pyridin-6-yl)-3,5-dimethylisoxazole]
[1]
  IC50: 300 to 3000 nM
[2]
  IC50: 300 to 3000 nM
[3]
  IC50: ≤ 300 nM
[4]
  IC50: 300 to 3000 nM

## Cc1noc(C)c1-c1ccc2ncn(Cc3ccccc3)c2n1 [Example Compound 26, 4-(3-benzyl-3H-imidazo[4,5-b]pyridin-5-yl)-3,5-dimethylisoxazole]
[1]
  IC50: 300 to 3000 nM
[2]
  IC50: 300 to 3000 nM
[3]
  IC50: 300 to 3000 nM
[4]
  IC50: 3000 to 30000 nM

## Cc1noc(C)c1-c1cc(N)c2oc(=O)n(Cc3ccccc3)c2c1 [compound 67, 7-amino-3-benzyl-5-(3,5-dimethylisoxazol-4-yl)benzo[d]oxazol-2(3H)-one]
[1]
  IC50: ≤ 300 nM
[2]
  IC50: 300 to 3000 nM
[3]
  IC50: ≤ 300 nM
[4]
  IC50: ≤ 300 nM

## Cc1noc(C)c1-c1cc(N)c2nc(C)n([C@H](C)c3ccccc3)c2c1 [compound 144, (R)-6-(3,5-dimethylisoxazol-4-yl)-2-methyl-1-(1-phenylethyl)-1H-benzo[d]imidazol-4-amine]
[1]
  IC50: ≤ 300 nM
[2]
  IC50: ≤ 300 nM
[3]
  IC50: ≤ 300 nM
[4]
  IC50: ≤ 300 nM

## Cc1noc(C)c1-c1cnc2cnn(Cc3ccccc3)c2c1 [compound 92, 4-(1-benzyl-1H-pyrazolo[4,3-b]pyridin-6-yl)-3,5-dimethylisoxazole]
[1]
  IC50: 300 to 3000 nM
[2]
  IC50: 300 to 3000 nM
[3]
  IC50: ≤ 300 nM
[4]
  IC50: 300 to 3000 nM
